Read-outs that look alike come from different tables or passages of the source.
Key:
USP1/UAF1 = USP1/UAF1 (Homo sapiens (Human), UniProt O94782); assay: qHTS assay for USP1/UAF1 activity (fluorometric, ubiquitin-rhodamine110); type: biochemical; settings: USP1/UAF1 inhibition
Protocol: USP1/UAF1 activity was monitored in a fluorometric assay using ubiquitin-rhodamine110. Enzymatic reactions were conducted in an assay buffer (50 mM HEPES, pH 7.8, 0.5 mM EDTA, 100 mM NaCl, 1 mM TCEP, 0.1 mg/mL BSA, and 0.01% Tween-20) that contained 1 nM USP1/UAF1. […] The plates were incubated for 15 min to attain equilibrium, and then the enzymatic reaction was initiated by dispensing 1 μL of Ub-Rho solution (150 nM final concentration). The plates were directly transferred to a ViewLux high-throughput CCD imager (PerkinElmer), where kinetic measurements of rhodamine fluorescence were acquired using a 480 nm excitation/540 nm emission filter set. […] All screening operations were performed on a fully integrated robotic system (Kalypsys Inc., San Diego, Calif.) as described elsewhere. Plates containing DMSO only were included approximately every 50 plates throughout the screen to monitor any systematic trend in the assay signal associated with reagent dispenser variation or decrease in enzyme specific activity. PubChem AID: 651605.

H596 cells = assay: Cytotoxicity assay in H596 cells (CCK-8 cell viability); type: cell-based, human; settings: alone, 48 hr, read-out: EC50 of killing H596 cells
Protocol: (§1) The H596 [human non-small cell lung cancer (NSCLC)] cell line was cultured in RFMI-1640 medium containing 10% fetal bovine serum (FBS) at 37° C. and 5% CO2. The HEK293T (human embryonic kidney 293T), U2OS (human osteosarcoma), and HCT116 (human colon cancer) cell lines were cultured in Dulbecco's modified Eagle's medium (DMEM) supplemented with 10% FBS at 37° C. and 5% CO2. All culture mediums contain 100 units/mL penicillin and 0.1 mg/mL streptomycin as antibiotics.
(§2) For cytotoxicity assays, 5×10^3 H596 cells were seeded in each well of the 96-well plate and grown for 24 hr in humidified incubator. […] In the combination assay, cisplatin was dissolved in saline solution and compound 81 was dissolved in DMSO. Equal volume of above solutions was added to each well and cells were incubated for 48 hr. Cells treated with equal volume of DMSO and saline were used as control and designated as 100% viability. The cell viability was measured by CCK-8 solution (Dojindo Molecular Technologies, Inc) as previously described (Chen, J., et al.).

U2OS cells = assay: Cytotoxicity assay in osteosarcoma U2OS cell line; type: cell-based, human; settings: alone, read-out: EC50 of killing U2OS cells
Protocol: as §1, §2
Cytotoxicity assays were run as described in Example 6 using the cisplatin-sensitive NSCLC H460 cell line and the osteosarcoma U2OS cell line.

[1] = tested on: USP1/UAF1 cellular activity in HEK293T cells; assay: PCNA and FANCD2 monoubiquitination in HEK293T cells (Western blot); type: cell-based, human; settings: 30 μM compound 81, 6 hr, as compared to control
Protocol: (§3) HEK293T or H596 cells were plated in 10 cm dishes and synchronized in S-phase with the double-thymidine block method as described previously (Chen et al., Chemistry & Biology, 2011. 18(11): 1390-400). […] Negative control cells were treated with an equal volume of DMSO and saline (0.9% NaCl). After 6 hr at 37° C., cells were harvested and lysed. Cell extracts were separated on SDS-PAGE and transferred to nitrocellulose membrane. The membranes were then blotted with PCNA antibody or FANCD2 antibody, followed by incubation with HRP-conjugated anti-mouse secondary antibody. Images were quantified in FluorChem Q software (Imgen Technologies).

[2] = tested on: USP1/UAF1 cellular activity in H596 cells; assay: PCNA and FANCD2 monoubiquitination in H596 cells (Western blot); type: cell-based, human; settings: 30 μM compound 81, 6 hr, as compared to control
Protocol: as §3

Chain of USP1/UAF1 (O94782 whole entry): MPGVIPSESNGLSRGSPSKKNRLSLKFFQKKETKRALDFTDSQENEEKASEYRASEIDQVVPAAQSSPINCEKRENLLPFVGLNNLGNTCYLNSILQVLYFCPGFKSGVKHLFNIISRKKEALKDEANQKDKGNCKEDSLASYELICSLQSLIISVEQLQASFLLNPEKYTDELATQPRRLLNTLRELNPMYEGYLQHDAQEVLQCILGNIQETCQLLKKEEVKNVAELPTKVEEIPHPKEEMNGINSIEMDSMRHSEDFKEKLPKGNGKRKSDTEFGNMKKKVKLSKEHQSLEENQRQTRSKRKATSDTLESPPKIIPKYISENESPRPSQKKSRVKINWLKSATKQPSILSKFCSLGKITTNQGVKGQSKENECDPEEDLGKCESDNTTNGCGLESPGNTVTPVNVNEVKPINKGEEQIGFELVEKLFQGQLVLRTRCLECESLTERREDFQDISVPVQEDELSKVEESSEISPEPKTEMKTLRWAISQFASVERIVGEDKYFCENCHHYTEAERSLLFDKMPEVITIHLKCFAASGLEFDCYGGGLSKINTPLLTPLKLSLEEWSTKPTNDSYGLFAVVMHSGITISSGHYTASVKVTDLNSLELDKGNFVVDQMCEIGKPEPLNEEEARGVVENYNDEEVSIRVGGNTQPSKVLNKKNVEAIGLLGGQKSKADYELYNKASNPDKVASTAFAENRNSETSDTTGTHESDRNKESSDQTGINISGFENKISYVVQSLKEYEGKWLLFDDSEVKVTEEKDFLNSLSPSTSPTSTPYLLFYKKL
Chain of USP1/UAF1 (Q8TAF3 whole entry partner): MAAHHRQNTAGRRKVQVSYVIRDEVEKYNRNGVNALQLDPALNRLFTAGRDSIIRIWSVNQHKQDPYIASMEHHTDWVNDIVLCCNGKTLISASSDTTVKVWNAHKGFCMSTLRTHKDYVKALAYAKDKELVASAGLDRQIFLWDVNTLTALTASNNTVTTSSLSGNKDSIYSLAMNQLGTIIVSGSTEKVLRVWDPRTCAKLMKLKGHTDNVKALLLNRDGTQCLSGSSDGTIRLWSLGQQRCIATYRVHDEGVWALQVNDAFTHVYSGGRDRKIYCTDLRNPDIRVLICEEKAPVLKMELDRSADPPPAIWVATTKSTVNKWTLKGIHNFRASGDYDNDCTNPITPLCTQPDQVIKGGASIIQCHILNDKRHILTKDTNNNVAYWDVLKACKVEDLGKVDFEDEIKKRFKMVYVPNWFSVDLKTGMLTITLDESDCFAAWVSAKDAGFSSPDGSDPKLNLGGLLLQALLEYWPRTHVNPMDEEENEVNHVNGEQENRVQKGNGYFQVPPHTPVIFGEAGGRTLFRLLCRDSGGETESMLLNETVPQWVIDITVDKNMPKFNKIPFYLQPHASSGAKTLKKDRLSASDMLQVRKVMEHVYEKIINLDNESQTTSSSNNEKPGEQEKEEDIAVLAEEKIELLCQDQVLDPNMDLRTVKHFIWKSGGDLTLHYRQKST

Row | IC50 (USP1/UAF1; Table 1 of Example 8) [µM] | IC50 (USP1/UAF1; Table 4) [µM] | Structure (SMILES) | also measured
1 | 3 |  | FC(F)(F)c1ccccc1-c1ncc2c(NCc3ccc(-c4ccccc4)cc3)cccc2n1 [Compound 6] | 
2 | 5.4 |  | FC(F)(F)c1ccccc1-c1ncc2c(NCc3ccc4c(c3)OCO4)cccc2n1 [Compound 7] | 
3 | 11 |  | FC(F)(F)c1ccccc1-c1ncc2c(NCc3ccc(Cl)c(Cl)c3)cccc2n1 [Compound 12] | 
4 | 3.4 |  | N#Cc1ccc(CNc2cccc3nc(-c4ccccc4C(F)(F)F)ncc23)cc1 [Compound 14] | 
5 | 7.6 |  | FC(F)(F)c1ccccc1-c1ncc2c(NCC#Cc3cccnc3)cccc2n1 [Compound 15] | 
6 | 1.4 |  | FC(F)(F)c1ccccc1-c1ncc2c(NCc3ccc(-c4ccc(Cl)c(Cl)c4)cc3)cccc2n1 [Compound 16] | 
7 | 0.48 |  | FC(F)(F)c1ccccc1-c1ncc2c(NCc3ccc(-c4ccncc4)cc3)cccc2n1 [Compound 19] | 
8 | 7.6 |  | FC(F)(F)c1ccccc1-c1ncc2c(NCc3ccc(N4CCOCC4)cc3)cccc2n1 [Compound 23] | 
9 | 4.3 |  | FC(F)(F)c1cc(-c2ccc(CNc3cccc4nc(-c5ccccc5C(F)(F)F)ncc34)cc2)ccn1 [Compound 24] | 
10 | 5.8 |  | FC(F)(F)c1ccccc1-c1ncc2c(NCc3ccc(C4CCCCC4)cc3)cccc2n1 [Compound 25] | 
11 |  | 1.1 | Cc1cccc(C(CO)Nc2nc(-c3ccccc3C(C)C)ncc2C)c1 (stereo not drawn) [Compound 70] | 
12 |  | 30 | Cc1cnc(-c2ccccc2C(C)C)nc1NCC1CCN(C)CC1 [Compound 71] | 
13 |  | 0.043 | Cc1ccc(-c2ccc(CNc3nc(-c4ccccc4C(C)C)ncc3C)cc2)cn1 [Compound 72] | 
14 |  | 0.38 | Cc1cnc(-c2ccccc2C(C)C)nc1NCc1ccc(-c2ccnc(C(F)(F)F)c2)cc1 [Compound 73] | 
15 |  | 0.048 | Cc1cnc(-c2ccccc2C(C)C)nc1NCC1CCN(c2cccnc2)CC1 [Compound 74] | 
16 |  | 0.12 | Cc1cnc(-c2ccccc2C(C)C)nc1NCC1CCN(c2cnccn2)CC1 [Compound 76] | 
17 |  | 6.8 | Cc1cnc(-c2ccccc2C(C)C)nc1NCC1CC(c2cccnc2)C1 (stereo not drawn) [Compound 77] | 
18 |  | 0.48 | Cc1cnc(-c2ccccc2C(C)C)nc1NCC1CCN(c2cccnc2)C1 (stereo not drawn) [Compound 78] | 
19 |  | 0.061 | Cc1cnc(-c2ccccc2C(C)C)nc1NCc1ccc(-c2ccc(F)nc2)cc1 [Compound 79] | 
20 |  | 7.6 | Cc1cnc(-c2ccccc2C(C)C)nc1NCc1ccc(C2CCCNC2)cc1 (stereo not drawn) [Compound 80] | 
21 |  | 0.24 | Cc1cnc(-c2ccccc2C(C)C)nc1NCc1ccc(-c2cnn[nH]2)cc1 [Compound 82] | 
22 |  | 7.6 | Cc1cnc(-c2ccccc2C(C)C)nc1NCc1ccc(-c2nnn[nH]2)cc1 [Compound 83] | 
23 |  | 15 | Cc1cnc(-c2ccccc2C(C)C)nc1NCC1CCN(C2COC2)CC1 [Compound 85] | 
24 |  | 0.061 | Cc1cnc(-c2ccccc2C(C)C)nc1NCc1ccc(-c2cccnc2)cc1 [Compound 86] | 
25 |  | 0.15 | Cc1cnc(-c2ccccc2C(C)C)nc1NCc1ccc(-c2cc[nH]n2)cc1 [Compound 88] | 
26 |  | 0.034 | Cc1cnc(-c2ccccc2C(C)C)nc1NC1(c2ccc(-c3cccnc3)cc2)CC1 [Compound 89] | 

The remaining lines, values behind:

Row | Structure (SMILES) | IC50 (USP1/UAF1; Table 1 of Example 8) [µM] | IC50 (USP1/UAF1; Table 4) [µM] | also measured
27 | FC(F)(F)c1ccccc1-c1ncc2c(NCc3cccs3)cccc2n1 [Compound 1] | 7.9 |  | 
28 | FC(F)(F)c1ccccc1-c1ncc2c(NCc3ccccc3)cccc2n1 [Compound 5] | 2.4 |  | 
29 | COc1ccc(CNc2cccc3nc(-c4ccccc4C(F)(F)F)ncc23)cc1 [Compound 8] | 3 |  | 
30 | Fc1ccc(CNc2cccc3nc(-c4ccccc4C(F)(F)F)ncc23)cc1 [Compound 9] | 2.4 |  | 
31 | FC(F)(F)c1ccccc1-c1ncc2c(NCc3ccc(Cl)cc3)cccc2n1 [Compound 10] | 3 |  | 
32 | FC(F)(F)c1ccc(CNc2cccc3nc(-c4ccccc4C(F)(F)F)ncc23)cc1 [Compound 11] | 5.4 |  | 
33 | Cc1ccc(CNc2cccc3nc(-c4ccccc4C(F)(F)F)ncc23)s1 [Compound 13] | 4.3 |  | 
34 | FC(F)(F)c1ccccc1-c1ncc2c(NCc3ccc(-c4ccc(Cl)cc4)cc3)cccc2n1 [Compound 17] | 2.2 |  | 
35 | FC(F)(F)c1ccccc1-c1ncc2c(NCc3ccc(-c4cccc(Cl)c4)cc3)cccc2n1 [Compound 18] | 1.7 |  | 
36 | FC(F)(F)c1ccccc1-c1ncc2c(NCc3ccc(-c4cccnc4)cc3)cccc2n1 [Compound 20] | 0.61 |  | 
37 | FC(F)(F)c1ccccc1-c1ncc2c(NCc3ccc(-c4cccnc4)cc3)cccc2n1 [Compound 21] | 1.9 |  | 
38 | FC(F)(F)c1cc(-c2ccc(CNc3cccc4nc(-c5ccccc5C(F)(F)F)ncc34)cc2)ccc1Cl [Compound 22] | 2.2 |  | 
39 | CC(C)c1ccccc1-c1nc(NCc2ccc(-c3ccccc3)cc2)c2sccc2n1 [Compound 50] |  |  | IC50 (USP1/UAF1; Table 3): 0.12 µM
40 | CC(C)c1ccccc1-c1nc(NCc2ccc(-c3ccccc3)cc2)c2ccsc2n1 [Compound 51] |  |  | IC50 (USP1/UAF1; Table 3): 0.24 µM
41 | CC(C)c1ccccc1-c1nc(NCc2ccc(-c3ccccc3)cc2)c2nc[nH]c2n1 [Compound 52] |  |  | IC50 (USP1/UAF1; Table 3): 2.12 µM
42 | CC(C)c1ccccc1-c1nc2c(c(NCc3ccc(-c4ccccc4)cc3)n1)CCC2 [Compound 53] |  |  | IC50 (USP1/UAF1; Table 3): 1.5 µM
43 | CC(C)c1ccccc1-c1nc(NCc2ccc(-c3ccccc3)cc2)c2cccn2n1 [Compound 54] |  |  | IC50 (USP1/UAF1; Table 3): 0.22 µM
44 | CC(C)c1ccccc1C1=NC2CNCCC2C(NCc2ccc(-c3ccccc3)cc2)=N1 (stereo not drawn) [Compound 55] |  |  | IC50 (USP1/UAF1; Table 3): 0.48 µM

Row | Structure (SMILES) | IC50 (USP1/UAF1; Table 1 of Example 8) [µM] | IC50 (USP1/UAF1; Table 4) [µM] | also measured
45 | CC(C)c1ccccc1C1=NC2CCCC2C(NCc2ccc(-c3ccccc3)cc2)=N1 (stereo not drawn) [Compound 56] |  |  | IC50 (USP1/UAF1; Table 3): 0.14 µM
46 | CC(C)c1ccccc1C1=NC2C=COC2C(NCc2ccc(-c3ccccc3)cc2)=N1 (stereo not drawn) [Compound 57] |  |  | IC50 (USP1/UAF1; Table 3): 0.15 µM
47 | CC(C)c1ccccc1C1=NCCC(NCc2ccc(-c3ccccc3)cc2)=N1 [Compound 58] |  |  | IC50 (USP1/UAF1; Table 3): 0.12 µM
48 | CCc1cnc(-c2ccccc2C(C)C)nc1NCc1ccc(-c2ccccc2)cc1 [Compound 60] |  |  | IC50 (USP1/UAF1; Table 3): 0.043 µM
49 | CC(C)c1ccccc1-c1ncc(F)c(NCc2ccc(-c3ccccc3)cc2)n1 [Compound 61] |  |  | IC50 (USP1/UAF1; Table 3): 0.061 µM
50 | CC(C)c1ccccc1-c1ncc(N)c(NCc2ccc(-c3ccccc3)cc2)n1 [Compound 62] |  |  | IC50 (USP1/UAF1; Table 3): 0.27 µM
51 | CC(C)c1ccccc1-c1ncc(N(C)C)c(NCc2ccc(-c3ccccc3)cc2)n1 [Compound 63] |  |  | IC50 (USP1/UAF1; Table 3): 0.15 µM
52 | CSc1cnc(-c2ccccc2C(C)C)nc1NCc1ccc(-c2ccccc2)cc1 [Compound 64] |  |  | IC50 (USP1/UAF1; Table 3): 0.086 µM
53 | Cc1cc(NCc2ccc(-c3ccccc3)cc2)nc(-c2ccccc2C(C)C)n1 [Compound 65] |  |  | IC50 (USP1/UAF1; Table 3): 0.48 µM
54 | Cc1nc(-c2ccccc2C(C)C)nc(NCc2ccc(-c3ccccc3)cc2)c1C [Compound 66] |  |  | IC50 (USP1/UAF1; Table 3): 0.14 µM
55 | Cc1cccc(CNc2nc(-c3ccccc3C(C)C)ncc2C)c1 [Compound 67] |  | 0.14 | 
56 | Cc1cnc(-c2ccccc2C(C)C)nc1NCc1cccnc1 [Compound 68] |  | 2.2 | 
57 | Cc1cnc(-c2ccccc2C(C)C)nc1NCc1cccs1 [Compound 69] |  | 0.22 | 
58 | Cc1ccc(N2CCC(CNc3nc(-c4ccccc4C(C)C)ncc3C)CC2)cn1 [Compound 75] |  | 2.2 | 
59 | Cc1cnc(-c2ccccc2C(C)C)nc1NCc1ccc(-n2ccnn2)cc1 [Compound 81, N-(4-(1H-1,2,3-triazol-1-yl)benzyl)-2-(2-isopropylphenyl)-5-methylpyrimidin-4-amine] |  |  | EC50 (H596 cells; Homo sapiens, NCI-H596): > 10 µM; EC50 (U2OS cells; Homo sapiens, U2OS): > 10 µM; PCNA and FANCD2 monoubiquitination [1]: increase in PCNA and FANCD2 monoubiquitination; PCNA and FANCD2 monoubiquitination [2]: increase in PCNA and FANCD2 monoubiquitination
60 | Cc1cnc(-c2ccccc2C(C)C)nc1NCc1ccc(C(N)=O)cc1 [Compound 84] |  | 6.8 | 
61 | Cc1cnc(-c2ccccc2C(C)C)nc1NC(C)(C)c1ccc(-c2cccnc2)cc1 [Compound 90] |  | 0.19 | 
62 | N.N.[Cl][Pt][Cl] [cisplatin, reference compound] |  |  | EC50 (H596 cells): 0.486 µM; EC50 (U2OS cells): 0.629 µM

From patent US9802904B2, “Inhibitors of the USP1/UAF1 deubiquitinase complex and uses thereof” (The United States of America, as represented by the …, priority 2012, dated 2017)
